Measured values published in ChEMBL document CHEMBL1201862, “PubChem BioAssay data set” (2004).
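Dose response: 5 concentrations. Exposure: 48 h. Format: 96-well plates. Endpoint: linear interpolation; highest concentration if not reached. GI50 is the concentration that inhibits growth by half.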 Active and inactive are the calls of the source. No stated cut-off is given here; in the data, active = GI50 up to about 1.1 µM and inactive = higher.

Tests used:
Assay in all cases: DTP human tumour cell line panel, 48 h
CAKI-1 = tested on: CAKI-1
SF-539 = tested on: SF-539
NCI-H23 = tested on: NCI-H23
UACC-257 = tested on: UACC-257
SW-620 = tested on: SW-620
HL-60 = tested on: HL-60
LOX IMVI = tested on: LOX IMVI
HCC 2998 = tested on: HCC 2998
IGROV-1 = tested on: IGROV-1
RPMI-8226 = tested on: RPMI-8226
M14 = tested on: M14
SNB-19 = tested on: SNB-19
SK-MEL-2 = tested on: SK-MEL-2
SNB-75 = tested on: SNB-75
MDA-MB-435 = tested on: MDA-MB-435
MCF7 = tested on: MCF7
MDA-MB-231 = tested on: MDA-MB-231
DU-145 = tested on: DU-145
T47D = tested on: T47D
MDA-N = tested on: MDA-N

| Structure (SMILES) | GI50 (CAKI-1) | GI50 (SF-539) | GI50 (NCI-H23) | GI50 (UACC-257) | GI50 (SW-620) | GI50 (HL-60) | GI50 (LOX IMVI) | GI50 (HCC 2998) | GI50 (IGROV-1) | GI50 (RPMI-8226) | GI50 (M14) | GI50 (SNB-19) | GI50 (SK-MEL-2) | GI50 (SNB-75) | GI50 (MDA-MB-435) | GI50 (MCF7) | GI50 (MDA-MB-231) | GI50 (DU-145) | GI50 (T47D) | GI50 (MDA-N) |
| --- | --- | --- | --- | --- | --- | --- | --- | --- | --- | --- | --- | --- | --- | --- | --- | --- | --- | --- | --- | --- |
| CNC(=O)OCc1nc(SSc2nc(COC(=O)NC)c(COC(=O)NC)n2C)n(C)c1COC(=O)NC | > 100 µM (inactive) | > 100 µM (inactive) | > 100 µM (inactive) | > 100 µM (inactive) | > 100 µM (inactive) | > 100 µM (inactive) | > 100 µM (inactive) | > 100 µM (inactive) | > 100 µM (inactive) | > 100 µM (inactive) | > 100 µM (inactive) | > 100 µM (inactive) | > 100 µM (inactive) | > 100 µM (inactive) | – | – | – | – | – | – |
| CC(=O)Nc1ccc(-c2nc3ccccc3s2)cc1C | 18.2 µM (inactive) | 50.8 µM (inactive) | 75.5 µM (inactive) | 69.7 µM (inactive) | > 100 µM (inactive) | 29.9 µM (inactive) | 36.5 µM (inactive) | 42.9 µM (inactive) | 38.6 µM (inactive) | 55.2 µM (inactive) | 68.7 µM (inactive) | 36.9 µM (inactive) | 37.1 µM (inactive) | 38.5 µM (inactive) | > 100 µM (inactive) | 33.5 µM (inactive) | 20 µM (inactive) | 22.2 µM (inactive) | 12.2 µM (inactive) | – |
| CC1=NN(c2nc(N)nc(COc3ccc(N)cc3)n2)C(C)(C)C1 | > 100 µM (inactive) | > 100 µM (inactive) | > 100 µM (inactive) | > 100 µM (inactive) | > 100 µM (inactive) | > 100 µM (inactive) | > 100 µM (inactive) | > 100 µM (inactive) | > 100 µM (inactive) | > 100 µM (inactive) | > 100 µM (inactive) | > 100 µM (inactive) | > 100 µM (inactive) | > 100 µM (inactive) | > 100 µM (inactive) | > 100 µM (inactive) | > 100 µM (inactive) | > 100 µM (inactive) | > 100 µM (inactive) | – |
| C=CCCCCCCC#CCCCCCCCCCC[C@@H]1C(=O)O[C@H](C)[C@@H]1O.CCCCCCCCC#CCCCCCCCCCC[C@@H]1C(=O)O[C@H](C)[C@@H]1O | 15.5 µM (inactive) | 20.8 µM (inactive) | 8.39 µM (inactive) | 8.45 µM (inactive) | 15.2 µM (inactive) | – | 12.9 µM (inactive) | 23.6 µM (inactive) | 15.7 µM (inactive) | 16.5 µM (inactive) | 17.3 µM (inactive) | 15.9 µM (inactive) | 14.7 µM (inactive) | 16.7 µM (inactive) | – | 15.4 µM (inactive) | 23.6 µM (inactive) | – | 14.9 µM (inactive) | 23.2 µM (inactive) |
| C/N=C(\N)N/N=C(\C)c1ccc2oc3ccc(/C(C)=N/N/C(N)=N/C)cc3c2c1 | 19.4 µM (inactive) | 1.62 µM (inactive) | 2.39 µM (inactive) | 25.6 µM (inactive) | 2.22 µM (inactive) | 2.89 µM (inactive) | 2.56 µM (inactive) | 2 µM (inactive) | 2.24 µM (inactive) | 2.38 µM (inactive) | 3.24 µM (inactive) | 2.11 µM (inactive) | 2 µM (inactive) | – | 2.92 µM (inactive) | 1.05 µM (active) | – | 2.35 µM (inactive) | – | 3.62 µM (inactive) |
| Cc1nc(Cc2n[nH]c(C)n2)n[nH]1 | – | > 100 µM (inactive) | > 100 µM (inactive) | > 100 µM (inactive) | > 100 µM (inactive) | – | > 100 µM (inactive) | > 100 µM (inactive) | > 100 µM (inactive) | > 100 µM (inactive) | > 100 µM (inactive) | > 100 µM (inactive) | > 100 µM (inactive) | > 100 µM (inactive) | > 100 µM (inactive) | > 100 µM (inactive) | > 100 µM (inactive) | > 100 µM (inactive) | – | > 100 µM (inactive) |
| COc1nc(NC2OC(COC(C)=O)C(OC(C)=O)C(OC(C)=O)C2OC(C)=O)c(/N=C(\C)C(C)=O)c(=O)n1C (stereo unspecified) | > 100 µM (inactive) | > 100 µM (inactive) | > 100 µM (inactive) | > 100 µM (inactive) | > 100 µM (inactive) | > 100 µM (inactive) | > 100 µM (inactive) | > 100 µM (inactive) | > 100 µM (inactive) | > 100 µM (inactive) | > 100 µM (inactive) | > 100 µM (inactive) | > 100 µM (inactive) | > 100 µM (inactive) | – | – | – | – | – | – |
| N#CCCN(CCC#N)c1ccc(C(/N=N/c2ccc(Cl)cc2)=N\c2ccccc2)cc1 | 12.2 µM (inactive) | 14.9 µM (inactive) | 12.6 µM (inactive) | 7.83 µM (inactive) | 18 µM (inactive) | – | – | 6.55 µM (inactive) | 11.7 µM (inactive) | 43.6 µM (inactive) | 12.9 µM (inactive) | 12.2 µM (inactive) | 2.09 µM (inactive) | 17.4 µM (inactive) | 11 µM (inactive) | 11.7 µM (inactive) | 18.1 µM (inactive) | 13.4 µM (inactive) | 8.55 µM (inactive) | 10.9 µM (inactive) |
| CSc1c(C)c(C)nn1-c1ccccc1 | > 100 µM (inactive) | > 100 µM (inactive) | > 100 µM (inactive) | > 100 µM (inactive) | > 100 µM (inactive) | 81.1 µM (inactive) | > 100 µM (inactive) | > 100 µM (inactive) | > 100 µM (inactive) | > 100 µM (inactive) | > 100 µM (inactive) | > 100 µM (inactive) | > 100 µM (inactive) | 58.2 µM (inactive) | – | – | – | – | – | – |
| C/C(=C\C(=O)O)C(=O)N(C)c1ccccc1I | > 100 µM (inactive) | – | > 100 µM (inactive) | > 100 µM (inactive) | > 100 µM (inactive) | – | > 100 µM (inactive) | > 100 µM (inactive) | – | > 100 µM (inactive) | > 100 µM (inactive) | > 100 µM (inactive) | > 100 µM (inactive) | > 100 µM (inactive) | > 100 µM (inactive) | > 100 µM (inactive) | > 100 µM (inactive) | > 100 µM (inactive) | > 100 µM (inactive) | > 100 µM (inactive) |
| CCN(CC)C(=C(C(Cl)=C(Cl)Cl)[N+](=O)[O-])N(CC)CC | 34.8 µM (inactive) | > 100 µM (inactive) | 24.1 µM (inactive) | 54.6 µM (inactive) | 85.9 µM (inactive) | 29.6 µM (inactive) | 41 µM (inactive) | > 100 µM (inactive) | 47.1 µM (inactive) | 42.3 µM (inactive) | 92 µM (inactive) | 29.6 µM (inactive) | – | 22.3 µM (inactive) | – | > 100 µM (inactive) | > 100 µM (inactive) | 62.4 µM (inactive) | 61.8 µM (inactive) | 47.1 µM (inactive) |
| Oc1c(Cl)c(Cl)c(O)c(CCNc2ccc3ncccc3c2)c1Cl | 12.6 µM (inactive) | 12.5 µM (inactive) | 10.2 µM (inactive) | 17.9 µM (inactive) | 4.63 µM (inactive) | 5.07 µM (inactive) | – | 12.9 µM (inactive) | 5 µM (inactive) | – | 11.5 µM (inactive) | 13.3 µM (inactive) | 6.32 µM (inactive) | 16.1 µM (inactive) | 5.2 µM (inactive) | 4.76 µM (inactive) | – | 21.5 µM (inactive) | 11 µM (inactive) | – |
| CC(C)/C(Cl)=N\OC(=O)Nc1ccc(F)c([N+](=O)[O-])c1 | 1.81 µM (inactive) | 3 µM (inactive) | 17.1 µM (inactive) | 16.1 µM (inactive) | 2.35 µM (inactive) | 1.01 µM (active) | 4.54 µM (inactive) | 10.5 µM (inactive) | 6.53 µM (inactive) | 2.43 µM (inactive) | 3.88 µM (inactive) | 16.7 µM (inactive) | 16.2 µM (inactive) | 14.2 µM (inactive) | 12.3 µM (inactive) | 17.7 µM (inactive) | 12.7 µM (inactive) | 18.2 µM (inactive) | – | 14 µM (inactive) |
| CC(=O)OCC1OC(OCC2OC(N3C(=S)N[C@H]([C@@H](O)[C@H](O)[C@H](O)CO)[C@H]3O)C(OC(C)=O)C(OC(C)=O)C2OC(C)=O)C(OC(C)=O)C(OC(C)=O)C1OC(C)=O (stereo partly specified) | > 100 µM (inactive) | > 100 µM (inactive) | > 100 µM (inactive) | – | > 100 µM (inactive) | – | – | > 100 µM (inactive) | – | 79.8 µM (inactive) | > 100 µM (inactive) | > 100 µM (inactive) | > 100 µM (inactive) | – | > 100 µM (inactive) | > 100 µM (inactive) | > 100 µM (inactive) | > 100 µM (inactive) | 61.8 µM (inactive) | > 100 µM (inactive) |
| CC1CCC2CC(=O)OC([C@@H]3C(=O)O[C@@H](C4=CCCC4)C4C(C)CCC43)C12 (stereo partly specified) | 72.6 µM (inactive) | > 100 µM (inactive) | > 100 µM (inactive) | > 100 µM (inactive) | 70 µM (inactive) | 23.1 µM (inactive) | > 100 µM (inactive) | > 100 µM (inactive) | 80.2 µM (inactive) | 37.2 µM (inactive) | > 100 µM (inactive) | > 100 µM (inactive) | > 100 µM (inactive) | > 100 µM (inactive) | – | – | – | – | – | – |
| O=S(=O)(N/C(=N\O)Nc1ccc(Cl)cc1)c1ccc(S(=O)(=O)c2ccccc2)s1 | 21.4 µM (inactive) | 24.5 µM (inactive) | 17 µM (inactive) | 16 µM (inactive) | 30.1 µM (inactive) | 27.4 µM (inactive) | 15.5 µM (inactive) | 14.3 µM (inactive) | 15.2 µM (inactive) | 13.6 µM (inactive) | 18.5 µM (inactive) | 33.7 µM (inactive) | 17.9 µM (inactive) | – | 17 µM (inactive) | 27 µM (inactive) | 22.3 µM (inactive) | 19.5 µM (inactive) | 15.8 µM (inactive) | – |
